Here are results for 37 compounds from PubChem BioAssay AID1117356 (Cheminformatics & Chemogenomics Research Group (CCRG), …, 2015).

In this assay the target is Receptor-type tyrosine-protein kinase FLT3 (Homo sapiens) (UniProt P36888). Description: inhibitors of Homo sapiens fms-like tyrosine kinase 3, primary HTS, cell-free, LANCE Ultra TR-FRET, NPC library from NCATS (AID 1117356). To be noted: recombinant FLT3, LANCE Ultra TR-FRET kinase assay, stronger effect = higher value.

The source made the active and inactive calls. No rule for the calls is given here.

Receptor-type tyrosine-protein kinase FLT3 (Homo sapiens), sequence (P36888 whole entry, looked up): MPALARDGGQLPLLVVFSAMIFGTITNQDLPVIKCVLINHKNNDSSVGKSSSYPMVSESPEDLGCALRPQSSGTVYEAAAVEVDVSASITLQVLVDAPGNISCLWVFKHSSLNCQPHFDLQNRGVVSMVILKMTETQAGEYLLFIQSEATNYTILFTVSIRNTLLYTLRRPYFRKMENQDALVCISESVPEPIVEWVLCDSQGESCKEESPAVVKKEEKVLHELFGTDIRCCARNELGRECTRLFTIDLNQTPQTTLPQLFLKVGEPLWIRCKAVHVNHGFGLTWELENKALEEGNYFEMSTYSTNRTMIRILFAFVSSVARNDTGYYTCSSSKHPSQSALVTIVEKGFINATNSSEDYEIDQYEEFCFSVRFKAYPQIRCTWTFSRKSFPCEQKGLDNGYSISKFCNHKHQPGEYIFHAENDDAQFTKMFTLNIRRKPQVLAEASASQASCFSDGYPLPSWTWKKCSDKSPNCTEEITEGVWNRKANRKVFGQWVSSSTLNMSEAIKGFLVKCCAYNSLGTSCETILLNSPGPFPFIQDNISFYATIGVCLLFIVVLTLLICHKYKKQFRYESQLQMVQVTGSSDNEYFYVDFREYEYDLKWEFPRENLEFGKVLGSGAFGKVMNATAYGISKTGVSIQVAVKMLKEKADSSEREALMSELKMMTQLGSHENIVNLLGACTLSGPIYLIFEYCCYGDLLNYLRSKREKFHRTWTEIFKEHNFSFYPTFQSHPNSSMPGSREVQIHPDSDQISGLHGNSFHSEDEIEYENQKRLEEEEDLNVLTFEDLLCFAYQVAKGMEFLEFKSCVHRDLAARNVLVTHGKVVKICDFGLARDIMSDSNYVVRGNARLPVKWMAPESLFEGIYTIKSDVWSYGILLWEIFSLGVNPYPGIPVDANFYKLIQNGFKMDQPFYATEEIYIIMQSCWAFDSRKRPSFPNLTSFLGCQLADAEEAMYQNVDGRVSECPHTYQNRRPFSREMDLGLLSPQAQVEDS

For `C=CC(=O)Nc1cc2c(Nc3ccc(F)c(Cl)c3)ncnc2cc1OCCCN1CCOCC1`, the inhibition runs as follows: (at 20 µM) 96.3%; (inhibition, at 0.2 µM) 14.3%; (inhibition, at 2 µM) 79.6%.

Turning to `CC(C)(C)C(=O)OCOP(=O)(COCCn1cnc2c(N)ncnc21)OCOC(=O)C(C)(C)C`, the inhibition is, setting by setting: (at 20 µM) 6.16% (inactive); (inhibition, at 0.2 µM) -3.43%; (inhibition, at 2 µM) 12.9%.

As for `COC(=O)Nc1nc2ccc(C(=O)C3CC3)cc2[nH]1`, the inhibition by setting is: (at 20 µM) 68.8%; (inhibition, at 0.2 µM) -3.31%; (inhibition, at 2 µM) 33.1%.

As for `COC(=O)[C@H]1[C@H]2C[C@@H]3c4[nH]c5cc(OC)ccc5c4CCN3C[C@H]2C[C@@H](OC(=O)/C=C/c2ccc(O)c(OC)c2)[C@@H]1OC`, the inhibition was -11.1% (inactive) (at 20 µM); -33.5% (inhibition, at 0.2 µM); -4.17% (inhibition, at 2 µM).

Regarding `O=c1[nH]c(=O)n([C@H]2C[C@H](O)[C@@H](CO)O2)cc1C(F)(F)F`, the inhibition reads like this: (at 20 µM) -3.93% (inactive); (inhibition, at 0.2 µM) -10.1%; (inhibition, at 2 µM) 6.77%.

As for `CCCSc1ccc2nc(NC(=O)OC)[nH]c2c1`, the inhibition by setting is: (at 20 µM) 10.2% (inactive); (inhibition, at 0.2 µM) -15.1%; (inhibition, at 2 µM) 22.7%.

Take `COc1ccc(-c2ccc3cc(C(=O)O)ccc3c2)cc1C12CC3CC(CC(C3)C1)C2`: the inhibition is 29.6% (inactive) (at 20 µM); -12.3% (inhibition, at 0.2 µM); -71.5% (inhibition, at 2 µM).

In the case of `Nc1nc(=S)c2[nH]cnc2[nH]1`, the inhibition is -3.73% (inactive) (at 20 µM); -20.1% (inhibition, at 0.2 µM); 4.2% (inhibition, at 2 µM).

For the compound `CSc1ccc2c(c1)C(N1CCN(C)CC1)Cc1ccccc1S2` (centres undefined), the inhibition runs as follows: (at 20 µM) 44.8% (inactive); (inhibition, at 0.2 µM) -5.03%; (inhibition, at 2 µM) 16.4%.

For `Cc1nc(N)nc(N)c1-c1ccc(Cl)c(Cl)c1`, the inhibition was 14.5% (inactive) (at 20 µM); -7.85% (inhibition, at 0.2 µM); 8.61% (inhibition, at 2 µM).

On to `Cc1cc(O)c2ccccc2c1O`, for which the inhibition runs as follows: (at 20 µM) 37.3% (inactive); (inhibition, at 0.2 µM) -26.3%; (inhibition, at 2 µM) 3.27%.

For `Cc1cc(=O)c2c(O)c3c(O)cc(=O)c4c3c3c(cc(O)c1c23)C(C)(C)C=4O`, the inhibition (at 20 µM) was 62.5%; the inhibition (inhibition, at 0.2 µM) is -7.52%; the inhibition (inhibition, at 2 µM) is 65.4%.

For the compound `Nc1ccc2cc3ccc(N)cc3nc2c1`, the inhibition is -26.7% (inhibition, at 0.2 µM) and -3.06% (inhibition, at 2 µM).

As for `COCc1c(C(C)C)nc(C(C)C)c(/C=C/[C@@H](O)C[C@@H](O)CC(=O)O)c1-c1ccc(F)cc1`, the inhibition is 8.38% (inactive) (at 20 µM); -11.4% (inhibition, at 0.2 µM); 11.1% (inhibition, at 2 µM).

As for `O=c1[nH]c(=O)n([C@H]2C[C@H](O)[C@@H](CO)O2)cc1F`, the inhibition is, setting by setting: (at 20 µM) -10.5% (inactive); (inhibition, at 0.2 µM) -23%; (inhibition, at 2 µM) 4.81%.

With `O=C(NOCC1CC1)c1ccc(F)c(F)c1Nc1ccc(I)cc1Cl`, the inhibition is -17.5% (inactive) (at 20 µM); -18.3% (inhibition, at 0.2 µM); 1.39% (inhibition, at 2 µM).

For the compound `COc1cc(-c2ccc(=O)[nH]n2)ccc1OC(F)F`, the inhibition reads like this: (at 20 µM) -7.69% (inactive); (inhibition, at 0.2 µM) -21.1%; (inhibition, at 2 µM) 1.13%.

`CC(=O)Oc1ccc(C2(c3ccc(OC(C)=O)cc3)Oc3ccccc3NC2=O)cc1`: the inhibition was 17.5% (inactive) (at 20 µM); -18.2% (inhibition, at 0.2 µM); 14.5% (inhibition, at 2 µM).

Take `COC(=O)Nc1nc2ccc(C(=O)c3cccs3)cc2[nH]1`: the inhibition runs as follows: (at 20 µM) 33.9% (inactive); (inhibition, at 0.2 µM) -29.8%; (inhibition, at 2 µM) 27.3%.

In the case of `COC(=O)c1nc(Cl)c(Cl)nc1N`, the inhibition is 60.2% (at 20 µM); 16.3% (inhibition, at 0.2 µM); 51% (inhibition, at 2 µM).

Consider `C[n+]1c2cc(N)ccc2cc2ccc(N)cc21` (tested in a mixture with another compound), for which the inhibition is, setting by setting: (inhibition, at 0.2 µM) -37.7%; (inhibition, at 2 µM) -20.8%.

Take `CNC(=O)c1cc(Oc2ccc(NC(=O)Nc3ccc(Cl)c(C(F)(F)F)c3)cc2)ccn1`: the inhibition reads like this: (at 20 µM) 99.7%; (inhibition, at 0.2 µM) 60.7%; (inhibition, at 2 µM) 97.5%.

Turning to `Oc1c(Cl)cc(Cl)cc1Sc1cc(Cl)cc(Cl)c1O`, the inhibition is, setting by setting: (at 20 µM) 13.6% (inactive); (inhibition, at 0.2 µM) -17%; (inhibition, at 2 µM) 3.25%.

As for `Cc1ccc2nc(N)[nH]c(=O)c2c1Sc1ccncc1`, the inhibition is 27.5% (inactive) (at 20 µM); -4.81% (inhibition, at 0.2 µM); 25.2% (inhibition, at 2 µM).

`CCC(C)n1ncn(-c2ccc(N3CCN(c4ccc(OC[C@H]5CO[C@](Cn6cncn6)(c6ccc(Cl)cc6Cl)O5)cc4)CC3)cc2)c1=O` (some centres undefined): the inhibition was -23.6% (inactive) (at 20 µM); -46.1% (inhibition, at 0.2 µM); 0.24% (inhibition, at 2 µM).

With `COC(=O)Nc1nc2ccc(S(=O)c3ccccc3)cc2[nH]1` (centres undefined), the inhibition reads like this: (at 20 µM) -8.2% (inactive); (inhibition, at 0.2 µM) -15.5%; (inhibition, at 2 µM) 16.7%.

On to `Oc1c(Cl)cc(Cl)c2cccnc12`, for which the inhibition (at 20 µM) is -9.04% (inactive); the inhibition (inhibition, at 0.2 µM) is -28.1%; the inhibition (inhibition, at 2 µM) was -0.96%.

In the case of `Cn1cnc([N+](=O)[O-])c1Sc1ncnc2nc[nH]c12`, the inhibition by setting is: (at 20 µM) -6.53% (inactive); (inhibition, at 0.2 µM) -22.4%; (inhibition, at 2 µM) 4.78%.

`CCCCC1C(=O)N(c2ccccc2)N(c2ccc(O)cc2)C1=O` (centres undefined): the inhibition was -2.38% (inactive) (at 20 µM); -10% (inhibition, at 0.2 µM); 17.6% (inhibition, at 2 µM).

As to `CCCCCCCCCCCCCC[N+](C)(C)C`, the inhibition (at 20 µM) was 9.63% (inactive); the inhibition (inhibition, at 0.2 µM) is -25.3%; the inhibition (inhibition, at 2 µM) amounted to 11.1%.

Regarding `CCN(CC)CCNc1ccc(CO)c2sc3ccccc3c(=O)c12`, the inhibition reads like this: (at 20 µM) 27.1% (inactive); (inhibition, at 0.2 µM) -16.8%; (inhibition, at 2 µM) 6.21%.

For the compound `CCCCCCCCCCCCCCCC[n+]1ccccc1`, the inhibition (at 20 µM) is -7.99% (inactive); the inhibition (inhibition, at 0.2 µM) is -19.8%; the inhibition (inhibition, at 2 µM) stood at 2.47%.

With `NC(=NCCCCCCN=C(N)/N=C(\N)Nc1ccc(Cl)cc1)/N=C(\N)Nc1ccc(Cl)cc1`, the inhibition was 10.1% (inactive) (at 20 µM); -2.84% (inhibition, at 0.2 µM); 22.6% (inhibition, at 2 µM).

With `COc1cccc2c1C(=O)c1c(O)c3c(c(O)c1C2=O)C[C@@](O)(C(C)=O)C[C@@H]3O[C@H]1C[C@H](N)[C@H](O)[C@H](C)O1`, the inhibition reads like this: (at 20 µM) -2.27% (inactive); (inhibition, at 0.2 µM) 0.52%; (inhibition, at 2 µM) -18.3%.

On to `CCN(CC)CCOc1ccc(/C(=C(\Cl)c2ccccc2)c2ccccc2)cc1`, for which the inhibition is -2.64% (inactive) (at 20 µM); -10.4% (inhibition, at 0.2 µM); -9.83% (inhibition, at 2 µM).

As for `[O-][n+]1ccccc1SSc1cccc[n+]1[O-]`, the inhibition by setting is: (at 20 µM) -9.22% (inactive); (inhibition, at 0.2 µM) -25.4%; (inhibition, at 2 µM) 5.1%.

`C=C(C)[C@H]1Cc2c(ccc3c2O[C@@H]2COc4cc(OC)c(OC)cc4[C@@H]2C3=O)O1`: the inhibition is, setting by setting: (at 20 µM) 1.11% (inactive); (inhibition, at 0.2 µM) -12.6%; (inhibition, at 2 µM) 7.73%.
